# Test results taken from patent publication US20070088069A1, “Novel imidazoles” (Warner-Lambert Company LLC, priority 2005, published 2007).
# Legend:
# [1] = tested on: Sterol Biosynthesis in Rat Hepatocytes; assay: Sterol biosynthesis in rat hepatocytes (14C acetic acid into cholesterol); type: cell-based; conditions: Hepatocyte, 4 hrs pre-incubation, 4 hrs 14C acetic acid labeling, read-out: IC50 in the cell assay (sterol biosynthesis in rat hepatocytes)
# Procedure: Frozen rat hepatocytes purchased from XenoTech (cat# N400572) were seeded on 6-well collagen I coated plates at a density of 10^5 cells/per well. The cells were grown in DMEM, (Dulbecco's Modified Eagle Medium) (Gibco, #11054-020) containing 10% FBS (Fetal Bovine Serum) and 10 mM HEPES, (N-2-hydroxyethyl-piperazine-N^1-2-ethane sulfonic acid) (Gibco # 15630-080) for 24 hrs. The cells were pre-incubated with compounds for 4 hrs and then labeled by incubating in medium containing 1 μCi/per mL of ^14C acetic acid for an additional 4 hrs. After labeling, the cells were washed twice with 5 mM MOPS, (3-[N-morpholino]propane sulfonic acid) solution containing 150 mM NaCl and 1 mM EDTA and collected in the lysis buffer containing 10% KOH and 80% (vol.) ethanol.
# In order to separate labeled cholesterol from labeled non-cholesterol lipids, the cells lysates were subject to saponification at 60° C. for 2 hrs. The lysates were then combined with 0.5 volume of H2O and 2 volumes of hexane, followed by 30 minutes of vigorous shaking. After the separation of two phases, the upper-phase solution was collected and combined with 5 volumes of scintillation cocktail. The amount of ^14C cholesterol was quantified by liquid scintillation counting. The IC50 values were calculated with GraphPad software (Prism 3.03).
# [2] = biological target: T1, HMGCoA (3-Hydroxy-3-methylglutaryl CoA) Reductase (Rattus norvegicus, UniProt P51639); assay: HMGCoA reductase assay with rat liver microsomes; type: biochemical; conditions: 14C-HMGCoA, 45 min at 37° C., read-out: IC50 in the in vitro HMGCoA reductase assay
# T1 construct: from tissue; host or cells: liver microsomes of male Sprague-Dawley rats fed cholestyramine
# T1 sequence (P51639 1-887): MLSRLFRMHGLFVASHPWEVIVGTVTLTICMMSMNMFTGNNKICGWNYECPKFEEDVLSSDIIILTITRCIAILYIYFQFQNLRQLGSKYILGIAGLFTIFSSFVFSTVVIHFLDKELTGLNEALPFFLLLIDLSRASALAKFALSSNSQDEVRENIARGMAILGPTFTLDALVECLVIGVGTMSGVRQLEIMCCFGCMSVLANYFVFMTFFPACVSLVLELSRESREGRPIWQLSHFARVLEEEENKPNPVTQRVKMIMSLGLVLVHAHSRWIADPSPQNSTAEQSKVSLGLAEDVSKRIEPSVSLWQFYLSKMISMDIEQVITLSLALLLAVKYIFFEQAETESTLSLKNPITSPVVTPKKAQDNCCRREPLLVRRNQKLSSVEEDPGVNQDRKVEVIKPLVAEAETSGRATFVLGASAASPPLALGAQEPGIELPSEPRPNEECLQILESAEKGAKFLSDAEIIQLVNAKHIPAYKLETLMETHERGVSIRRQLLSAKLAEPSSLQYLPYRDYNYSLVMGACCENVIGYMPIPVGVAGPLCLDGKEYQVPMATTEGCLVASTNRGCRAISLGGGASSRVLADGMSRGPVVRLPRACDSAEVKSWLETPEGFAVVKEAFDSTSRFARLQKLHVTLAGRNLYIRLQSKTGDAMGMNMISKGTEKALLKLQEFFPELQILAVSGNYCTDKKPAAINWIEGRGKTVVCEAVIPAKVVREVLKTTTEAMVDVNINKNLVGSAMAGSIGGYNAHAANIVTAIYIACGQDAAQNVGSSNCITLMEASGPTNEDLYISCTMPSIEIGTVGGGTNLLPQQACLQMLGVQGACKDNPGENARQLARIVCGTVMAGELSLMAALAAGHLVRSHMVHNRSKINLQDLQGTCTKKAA
# Procedure: Male Charles River Sprague-Dawley rats were fed with 2.5% cholestyramine in rat chow diets for 5 days before sacrificing. Livers were minced and homogenized in a sucrose homogenizing solution in an ice bath 10 times. Homogenates were diluted into a final volume of 200 mL, and centrifuged 15 min. with a Sorvall Centrifuge at 5° C., 10,000 rpm (12,000×G). The upper fat layer was removed and the supernatant decanted into fresh tubes. This step was repeated one more time before transferring the supernatant into ultracentrifuge tubes and centrifuged at 36,000 rpm (105,000×G) for an hour at 5° C. The resulting supernatant was discarded and the pellet was added to total of 15 mL 0.2 M KH2PO4. Pellets were homogenized gently by hand about 10 times. Samples were pooled and diluted into total of 60 mL buffer. The protein concentration of the homogenate was determined by the […] using a BCA (Bicinchoninic acid), kit from Pierce Chemical Company. 1 mL aliquots of microsomes were kept frozen in liquid nitrogen.
# [3-^14C]-HMGCoA (57.0 mCi/mmol) was purchased from Amersham Biosciences, UK. […] Scintillation cocktail (Ultima-Flo-M) was added into each well and plates counted on a Trilux Microbeta Counter. The IC50 values were calculated with GraphPad software (Prism). […]
# [3] = tested on: Sterol Biosynthesis in L6 Rat Myoblast; assay: Sterol biosynthesis in L6 rat myoblast (14C acetic acid into cholesterol); type: cell-based; conditions: 3 hours pre-incubation, 3 hours 14C acetic acid labeling
# Procedure: L6 rat myoblast purchased from ATCC(CRL-1458) were grown in T-150 vented culture flasks and seeded on 12-well culture plates at a density of 60,000 cells per well. The cells were grown in DMEM, (Dulbecco's Modified Eagle Medium) (Gibco, #10567-014) containing 10% heat inactivated FBS (Fetal Bovine Serum) (Gibco # 10082-139) for 72 hours until reaching confluence. The cells were pre-incubated in media with compound and 0.2% DMSO (dimethyl sulfoxide) for 3 hours and then labeled by incubating in medium containing compound, 0.2% DMSO and 1 μCi/per mL of ^14C acetic acid for an additional 3 hours. After labeling, the cells were washed once with 1×PBS (Gibco #14190-144) then lysed overnight at 4° C. in buffer containing 10% KOH and 78% (vol.) ethanol.
# Lipid ester bonds were hydrolyzed by saponification of the lysates at 60° C. for 2 hours. […] The amount of ^14C cholesterol was quantified by scintillation counting in a Trilux 1450 plate reader (Wallac). The IC50 values were calculated from % inhibitions relative to negative controls vs. compound concentration on Microsoft excel 2000 data analysis wizard using a sigmoid inhibition curve model with formula: y=Bmax(1−(x^n/K^n+x^n))+y2 Where K is the IC50 for the inhibition curve, X is inhibitor concentration, Y is the response being inhibited and Bmax+Y2 is the limiting response as X approaches zero.
Compound,IC50 [1],IC50 [2],IC50 [3]
"C[C@H](c1ccccc1)N(C)C(=O)c1nc(-c2ccc(F)cc2)n(CC[C@@H](O)C[C@@H](O)CC(=O)O)c1C1CC1 [Example 2, Sodium; (3R,5R)-7-{5-Cyclopropyl-2-(4-fluoro-phenyl)-4-[methyl-((R)-1-phenyl-ethyl)-carbamoyl]-imidazol-1-yl}-3,5-dihydroxy-heptanoate]",0.27 nM,36.8 nM,–
"C[C@@H](NC(=O)c1nc(-c2ccc(F)cc2)n(CC[C@@H](O)C[C@@H](O)CC(=O)O)c1C1CC1)c1ccccc1 [Example 1, Sodium: (3R,5R)-7-[5-Cyclopropyl-2-(4-fluoro-phenyl)-4-((R)-1-Phenyl-ethylcarbamoyl)-imidazol-1-yl]-3,5-dihydroxy-heptanoate]",–,–,449 nM
